Here are results for one compound from paper PMC13108699, “Mass balance and metabolite profiling of ^14C-Zalunfiban in humans following single-dose subcutaneous administration” (Xenobiotica; the fate of foreign compounds in biological …, 2025).

Data set [1] in a line: Cumulative excretion of ^14C in urine and faeces (mass balance). Type of data set: in vivo, human. An excerpt:
This was a Phase 1, single-centre, open-label, non-controlled, mass balance and metabolite profiling study of ^14C-radiolabeled zalunfiban in health male volunteers (NCT04284995). The planned participant enrolment size was 8, with 2 additional alternate participants available on the morning of dosing. Following a 28-day screening period, all eligible participants were admitted to the research unit the evening before dosing. After fasting overnight, participants completed a standard breakfast prior to dosing on study day 1. After dosing, subjects fasted for 4 h. Fluids were permitted ad libitum starting 1-hour after dosing. […]
Whole blood samples were analysed using accelerator mass spectrometry (AMS). […] Each sample was counted for at least 10 min or until the 2%2σ terminator was reached. […] The CO2 produced was trapped in a Carbosorb/Permafluor 2:1 v/v (Perkin Elmer, Waltham MA) to determine total carbon content and the ^14C:^12C ratio and then analysed by AMS.
A carbon content correction based upon pre-dose whole blood samples and urine samples was applied to all post dose samples. As the carbon content of homogenised faeces can be variable, all homogenised faeces samples were analysed by C,H,N using a Thermo Scientific FlashSmart elemental analyser (Waltham, MA). Urea standards were used to calibrate and normalise the C,H,N, and the carbon content of each sample was determined. […]

A further data set deals with platelet aggregation. The experiment in a line: In vitro inhibition of ADP-induced platelet aggregation in platelet-rich plasma. To be noted: Homo sapiens, Platelet, 20 min; PRP, 20 min at 22°C, ADP-initiated aggregation. Type of data set: cell-based, human. The method, then: Ten mL of whole blood was collected from healthy human donors via venipuncture and treated with an anticoagulant (D-phenylalanyl-prolyl-arginyl chloromethyl ketone). From this, platelet-rich plasma (PRP) was prepared by centrifuging whole blood at room temperature at 650 × g for 4 min. PRP was removed and standardised to a uniform platelet concentration of 3.0 × 10^5/μL, using platelet poor plasma as a diluent, where necessary. […] Platelet aggregation was measured using an aggregometer (PAP-8E C/N 106075; Bio/Data Corp, Horsham PA). For M1 a range of concentrations was tested to produce a single fitted curve, and the Levenberg-Marquardt approach was used to calculate IC50 values.

The nature of data set [2]: Safety assessments (adverse events, laboratory, vital signs, ECG). Type of data set: in vivo, human. As to conditions: for Tolerability: single SC 9.5 mg, 8 healthy males. As to the method:
The study was reviewed, approved, and monitored by both an independent Institutional Review Board and a Data Safety Monitoring Board, and the protocol was performed under an Investigational New Drug Application. The safety of single-dose SC zalunfiban was evaluated by monitoring adverse events, clinical laboratory data, vital signs, 12-lead electrocardiogram, and physical examination. Vital signs (blood pressure, heart rate, body temperature, respiratory rate) were measured at screening, admission, pre-dose, post-dose at 1, 4, 8, hours, and in the morning on study days 2–11. Safety laboratory tests included serum chemistry, haematology, coagulation, and urinalysis, and were performed at screening, admission, and on study days 1, 4, and 11. On day 1, additional platelet counts were performed post-dose at 2, 6, and 12 h. […] Participants were continuously monitored for adverse events (AEs) and new use of medication(s).
During the study, AEs were collected from the time of informed consent to the last time the participant was seen. Any AE that occurred after the start of study drug administration was considered a treatment-emergent AE (TEAE). The investigator or designee assessed the severity of all AEs using the toxicity grading scale in National Cancer Institute Common Terminology Criteria for Adverse Events v5.0. These scales assign a grade of 1 through 5 to indicate the severity of AEs.

Usually IC50 stands for the concentration that inhibits the measured activity by half. Low values mean greater potency in that assay, high ones weaker potency in that assay. In the case of `NCC(=O)Nc1cncc(-c2nn3c(=O)cc(N4CCNCC4)nc3s2)c1` [Zalunfiban, 2-amino-N-{5-[5-oxo-7-(piperazin-1-yl)-5H-[1,3,4]thia-diazolo[3,2-a]pyrimidin-2-yl]pyridin-3-yl}acetamide], the “Radioactivity recovered in urine and faeces” value in data set [1] (by 48 h, on average) is given as “more than 80%”. The “Cumulative percentage of recovered ^14C (urine plus faeces)” value in data set [1] (by 240 h post-dose, range over participants, listed as 14C-zalunfiban) is recorded as greater than 90%. For the same compound, the midpoint of inhibition with platelet aggregation, the IC50, lay at 112 nM. Besides, the TEAE headache in data set [2] (1 grade 1 and one grade 2, of 8 dosed) is recorded as 2 participants. In data set [2] (8 dosed), the “Changes in clinical laboratory tests, vital signs, or ECGs” value is recorded as “no observed clinically significant changes”; the “Serious TEAEs” value was “no serious TEAEs”; the “TEAEs leading to study discontinuation” value was “no TEAEs leading to study discontinuation”. Further, in data set [2] (grade 1, of 8 dosed), the TEAE confusion turned out to be 1 participant, the “TEAE injection site bruising” value was determined as 1 participant and the “TEAE injection site pain” value was 1 participant. In data set [2] (of 8 dosed), the “Participants with Grade 1 AEs” value is reported as 4 participants and the “Participants with a Grade 2 AE” value amounted to 1 participant. In addition, the Tolerability result in data set [2] is recorded as “well-tolerated”. Further, the Tolerability result in data set [2] (listed as 14C-zalunfiban) was “safe and well-tolerated”.
